Test results taken from PMC8703873, “Structure and Activity of a Selective Antibiofilm Peptide SK-24 Derived from the NMR Structure of Human Cathelicidin LL-37” (Pharmaceuticals, 2021).
No end group written: not given here.

Key:
[1] = HPLC retention time (measure of peptide hydrophobicity); type: physicochemical; conditions: chromatographic, Waters C8 symmetry hydrophobic column, as described in ref 34; used as indicator of peptide hydrophobicity
Excerpt: In the membrane-bound LL-37 structure determined by 3D NMR spectroscopy, a hydrophobic gap exists (Figure 1A). The location of a hydrophilic S9 on the hydrophobic surface of LL-37 splits the long helix into two hydrophobic domains (gold sticks). The SK-24 peptide we identified here corresponds to the long hydrophobic domain [26]. The amino acid sequence of SK-24, along with LL-37 and its derived antimicrobial peptides, is depicted in Figure 1B. Peptide parameters, including net charge, hydrophobic content, Boman index, GRAVY, hydrophobicity, and hydrophobic moment of each peptide, were calculated using online tools, such as the APD [8] and HeliQuest (Table 1). Except for the shortest RI-10 (net charge +3), LL-37 and its other derived peptides have net charges +5 or +6, above the average net charge (+3.3) of natural antimicrobial peptides registered in the APD [8, 35, 36]. Overall, the hydrophobic percentages (Pho) of these peptides calculated in the APD are proportional to the hydrophobicity and hydrophobic moment calculated by HeliQuest in Table 1. Of note, LL-37 has the highest net charge (+6) and Boman index but the lowest Pho%, GRAVY, and hydrophobic moment.
All peptides were chemically synthesized and purified to >95% (Genemed Synthesis, San Antonio, TX, USA). The quality of each peptide was determined based on mass spectrometry (MS) and high-performance liquid chromatography (HPLC). Peptide stock solutions were freshly made by solubilizing in autoclaved distilled water, and their concentrations were quantitated using UV spectroscopy based on the absorbance difference at 215 and 225 nm as described. Peptide retention time was measured on a Waters C8 symmetry hydrophobic column as described. Other chemicals were purchased from Sigma (St. Louis, MO, USA) unless specified.

E. faecium V284-17 = type: cell-based, Enterococcus faecium; conditions: V284-17
S. aureus USA300 = type: cell-based, Staphylococcus aureus
Procedure: (§1) The antibiotic-resistant pathogens used in this study include the Gram-positive bacteria Enterococcus faecium V286-17 and Staphylococcus aureus USA300 LAC and the Gram-negative bacteria Klebsiella pneumoniae E406-17, Acinetobacter baumannii B28-16, Pseudomonas aeruginosa E411-17, and Escherichia coli E423-17. All bacteria were cultivated in tryptic soy broth (TSB) at 37 °C, 220 rpm.
(§2) The antibacterial activity of peptides was evaluated using a standard broth microdilution protocol with minor modifications. In brief, peptides were made at various concentrations, 10 μL per well in a 96-well polystyrene microplate. Logarithmic phase bacterial cultures (i.e., optical density (OD) at 600 nm ≈ 0.5) were diluted to 0.001 OD, and aliquots of 90 μL were added to each well. Untreated bacterial culture and medium were included as positive and negative controls, respectively. Plates were incubated at 37 °C overnight and read at 630 nm using a ChroMate Microplate Reader (Awareness Technology, Palm City, FL, USA). […] Our previously designed peptide 17BIPHE2 [32] was included as a positive control, and RI-10, a peptide without antibacterial activity in rich media, was utilized as a negative control.

K. pneumoniae E406-17 = type: cell-based, Klebsiella pneumoniae; conditions: E406-17
Procedure: as §1, §2

A. baumannii B28-16 [2] = type: cell-based, Acinetobacter baumannii
Procedure: as §1, §2

P. aeruginosa E411-17 = type: cell-based, Pseudomonas aeruginosa; conditions: E411-17
Procedure: as §1, §2

E. coli E423-17 = type: cell-based, Escherichia coli
Procedure: as §1, §2

[3] = test system: clinical and antibiotic-resistant pathogens (panel of Table 3); type: cell-based; conditions: all pathogens of Table 3; peptide 32 µM
Procedure: as §1, §2

[4] = test system: A. baumannii B28-16 preformed biofilms; assay: Disruption of preformed biofilms (XTT); type: cell-based, Acinetobacter baumannii; conditions: biofilms formed for 24, 48 and 72 h, peptide at 8, 16, 32 or 64 μM for 24 h
Procedure: The antibiofilm activities of peptides against the preformed biofilms of A. baumannii B28-16 and S. aureus USA300 LAC were evaluated as follows. Bacteria in the logarithmic growth phase were adjusted to a cell density of 10^5 colony forming unit (CFU)/mL. Two hundred microliter cells were seeded into each well of the 96-well plates. The plates were incubated at 37 °C to allow for the formation of biofilm for 24, 48, and 72 h, respectively. The planktonic cells were then removed, followed by a wash. The biofilms were then treated with 20 µL of 10× two-fold diluted peptides and 180 µL of fresh TSB media for 24 h at 37 °C. Cultures treated with water without peptide served as the positive control, and media treated with water was used as the negative control. To quantify the antibiofilm activity of the peptides, the XTT [2, 3-bis (2-methyloxy-4-nitro-5-sulfophenyl)-2H-tertazolium-5-carboxanilide] assay staining method was used to quantitate the live cells. Absorbance was read at 450 nm using a ChroMate microliter plate reader. The percentage biofilm growth for the peptide was plotted by assuming 100% biofilm growth in untreated bacterial control wells. Data were represented as mean ± standard deviation (SD). The data are statistically significant at p < 0.05. Plots were generated using GraphPad Prism v7 (GraphPad Software, San Diego, CA, USA).

S. aureus USA300 LAC [5] = assay: Membrane permeabilization (propidium iodide); type: cell-based, Staphylococcus aureus; conditions: peptide 8 µM; propidium iodide fluorescence, 2 h, PBS, 37 °C
Procedure: (§3) Membrane permeabilization was evaluated as described. In brief, bacteria were inoculated and grown overnight. A second inoculation was made and let bacteria grow to the exponential phase. Bacteria were then spun, washed, and resuspended in the same volume of PBS. A series of peptide solutions (10×) was made via two-fold dilution in a 96-well plate (10 µL each). All wells were aliquoted with 2 µL of propidium iodide (20 µM), followed by adding 88 µL of S. aureus USA300 or A. baumannii B28-16 (OD600 ~0.11 in PBS). The plate was incubated at 37 °C with continuous shaking at 100 rpm in a FLUOstar Omega microplate reader (BMG Labtech Inc., Cary, NC, USA). Fluorescence was recorded every 5 min for 2 h with excitation and emission wavelengths of 485 and 620 nm. The data were analyzed by the vendor’s software using averaged values from duplicated experiments.

A. baumannii B28-16 [6] = assay: Membrane permeabilization (propidium iodide); type: cell-based, Acinetobacter baumannii; conditions: peptide 16 µM; propidium iodide fluorescence, 2 h, PBS, 37 °C
Procedure: as §3

S. aureus USA300 LAC [7] = assay: Membrane depolarization (DiBAC4(3)); type: cell-based, Staphylococcus aureus; conditions: peptide 8 µM; similar trends at 16 and 32 µM; DiBAC4(3) fluorescence
Procedure: The experiment was conducted as described. In brief, an overnight culture of S. aureus USA300 LAC was subcultured in a fresh TSB medium and grown to the exponential phase. Cells were spun using centrifugation and washed twice with PBS, and resuspended in twice the volume of PBS containing 25 mM glucose and incubated at 37 °C for 15 min. For membrane depolarization measurements, 500 nM (final concentration) of the dye DiBAC4 (3) (bis-(1,3- dibutylbarbituric acid) trimethine oxonol) (AnaSpec, San Jose, CA, USA) was added and vortexed gently. Aliquots of 90 μL of the energized bacteria solution were loaded to the wells, and the plate was fed into a FLUOstar Omega microplate reader. Fluorescence was read for 20 min at excitation and emission wavelengths of 485 and 520 nm, respectively, to get dye normalization. Then 10 μL of diluted peptide solutions were added and gently mixed. Fluorescence readings were recorded for 40 min, where Triton X-100 (0.1%) was used as a positive control.

[8] = test system: S. aureus USA300 LAC preformed biofilms; conditions: S. aureus USA300 LAC and other clinical strains (USA200, USA400, Mu50); cited from earlier work
Procedure: Here, we compared the antibiofilm activity of SK-24 with that of GF-17, GI-20, and 17BIPHE2 against the 24 h preformed biofilms of S. aureus USA300. […] Only SK-24 a ...

## RIVQRIKDFL-NH2 [RI-10]
[1]
  tHPLC (HPLC retention time): 8.831 min
E. faecium V284-17
  MIC: >32 µM
S. aureus USA300
  MIC: >32 µM
K. pneumoniae E406-17
  MIC: >32 µM
A. baumannii B28-16 [2]
  MIC: >32 µM
P. aeruginosa E411-17
  MIC: >32 µM
E. coli E423-17
  MIC: >32 µM
[3]
  Inhibitory activity at 32 µM: did not show any inhibitory activity
[4]
  Disruption of preformed biofilms: unable to disrupt
S. aureus USA300 LAC [5]
  Membrane permeation: some membrane permeation
A. baumannii B28-16 [6]
  Membrane permeation: some membrane permeation
S. aureus USA300 LAC [7]
  Membrane depolarization ability (order, words): unable to produce a similar effect
[8]
  Disruption of 24 h preformed biofilms (words, found previously): neither LL-37 nor RI-10 was able to disrupt
